Reference: US9868720B2 (Genentech, Inc., priority 2013, dated 2018)

Molecular target: DLK kinase (N-terminally GST-tagged DLK, catalytic domain amino acid 1-520) (Homo sapiens (Human), UniProt Q12852)
Experiment: DLK TR-FRET assay
Format: biochemical
Settings: 30 μM ATP, MKK4 K131M substrate, read-out: DLK HTRF (Ki)
Description: DLK TR-FRET assay: DLK kinase reactions (20 μL) containing 5 nM N-terminally GST-tagged DLK (catalytic domain amino acid 1-520) (Carna Bioscience), 40 nM N-terminally HIS-tagged MKK4 K131M substrate, and 30 μM ATP in kinase reaction buffer (50 mM HEPES, pH 7.5, 0.01% Triton X-100, 0.01% Bovine γ-Globulins, 2 mM DTT, 10 mM MgCl2 and 1 mM EGTA), and testing compound 1:3 serial diluted starting at 20 uM were incubated at ambient temperature for 60 minutes in 384 well OptiPlate (Perkin Elmer). To quench kinase reactions and detect phosphorylated MKK4, 15 μL of TR-FRET antibody mixture containing 2 nM anti-phosphorylated MKK4 labeled with Europium cryptate (Cisbio) and 23 nM anti-HIS labeled with D2 (Cisbio) in detection buffer (25 mM Tris pH 7.5, 100 mM NaCl, 100 mM EDTA, 0.01% Tween-20, and 200 mM KF) was added to the reaction mixture. The detection mixture was incubated for 3 hours at ambient temperature and the TR-FRET was detected with an EnVision multilabel plate reader (Perkin-Elmer) using the LANCE/DELFIA Dual Enh label from Perkin-Elmer (excitation filter: UV2 (TRF) 320 and emission filters: APC 665 and Europium 615).

Chain of DLK kinase (N-terminally GST-tagged DLK, catalytic domain amino acid 1-520) (Q12852 1-520): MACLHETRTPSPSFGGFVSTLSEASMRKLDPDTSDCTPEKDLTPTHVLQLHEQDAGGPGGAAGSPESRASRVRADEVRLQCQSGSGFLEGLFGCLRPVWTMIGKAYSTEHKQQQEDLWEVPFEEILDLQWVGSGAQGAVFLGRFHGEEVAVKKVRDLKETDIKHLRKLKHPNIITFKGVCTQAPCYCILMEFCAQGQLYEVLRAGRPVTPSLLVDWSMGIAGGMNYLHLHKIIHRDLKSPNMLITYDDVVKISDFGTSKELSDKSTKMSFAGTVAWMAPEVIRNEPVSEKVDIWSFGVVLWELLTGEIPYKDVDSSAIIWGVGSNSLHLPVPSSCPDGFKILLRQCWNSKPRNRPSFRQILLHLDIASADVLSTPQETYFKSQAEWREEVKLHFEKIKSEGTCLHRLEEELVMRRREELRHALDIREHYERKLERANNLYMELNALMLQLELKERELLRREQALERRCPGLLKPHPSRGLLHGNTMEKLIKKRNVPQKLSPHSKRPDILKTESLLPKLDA

| Ki | SMILES |
| --- | --- |
| 262 nM | CC(=O)N1CCCC(c2cc(Nc3cc(C)ccn3)nc(N3CCC3)n2)C1 (centres unmarked) [Example 87, 1-{3-[2-Azetidin-1-yl-6-(4-methyl-pyridin-2-ylamino)-pyrimidin-4-yl]-piperidin-1-yl}-ethanone] |
| 59 nM | CC(=O)N1CCC(c2cc(Nc3cc(C)ccn3)nc(N3CCCC3)n2)C1 (centres unmarked) [Example 89, 1-{3-[6-(4-Methyl-pyridin-2-ylamino)-2-pyrrolidin-1-yl-pyrimidin-4-yl]-pyrrolidin-1-yl}-ethanone] |
| 104 nM | CC(=O)N1CCC(c2cc(Nc3cc(C)ccn3)nc(N3CCCCC3)n2)C1 (centres unmarked) [Example 90, 1-{3-[6-(4-Methyl-pyridin-2-ylamino)-2-piperidin-1-yl-pyrimidin-4-yl]-pyrrolidin-1-yl}-ethanone] |
| 3.1 nM | FC1(F)CCCN(c2nc(Nc3cc(C(F)(F)F)ccn3)cc(C3CCNC3)n2)C1 (centres unmarked) [Example 96, [2-(3,3-Difluoro-piperidin-1-yl)-6-pyrrolidin-3-yl-pyrimidin-4-yl]-(4-tri-fluoromethyl-pyridin-2-yl)-amine] |
| 11.7 nM | N#CC1(c2cc(Nc3cc(C(F)(F)F)ccn3)nc(N3CCC(F)(F)C3)n2)CCNCC1 [Example 105, 4-[2-(3,3-Difluoro-pyr-rolidin-1-yl)-6-(4-trifluoro-methyl-pyridin-2-ylamino)-pyrimidin-4-yl]-piperidine-4-carbonitrile] |
| 30.7 nM | CC(=O)N1CCCC(c2cc(Nc3cc(C)ccn3)nc(-c3ccccc3)n2)C1 (centres unmarked) [Example 106, 1-{3-[6-(4-Methyl-pyridin-2-ylamino)-2-phenyl-pyrimidin-4-yl]-piperidin-1-yl}-ethanone] |
| 0.85 nM | C[C@@H]1CCCN1c1nc(Nc2cc(C(F)(F)F)ccn2)cc(C2CCNCC2)n1 [Example 111, [2-((R)-2-Methyl-pyrrolidin-1-yl)-6-piperidin-4-yl-pyrimidin-4-yl]-(4-trifluoromethyl-pyridin-2-yl)-amine] |
| 15.8 nM | C[C@H]1CCCN1c1nc(Nc2cc(C(F)(F)F)ccn2)cc(C2CCNCC2)n1 [Example 112, [2-((S)-2-Methyl-pyrrolidin-1-yl)-6-piperidin-4-yl-pyrimidin-4-yl]-(4-trifluoromethyl-pyridin-2-yl)-amine] |
| 8.55 nM | FC1(F)CCN(c2nc(Nc3cc(Cl)ccn3)cc(C3CCNCC3)n2)C1 [Example 120, (4-Chloro-pyridin-2-yl)-[2-(3,3-difluoro-pyrrolidin-1-yl)-6-piperidin-4-yl-pyrimidin-4-yl]-amine] |
| 15.2 nM | COc1ccnc(Nc2cc(C3CCNCC3)nc(N3CCCC3C)n2)c1 (centres unmarked) [Example 125, (4-Methoxy-pyridin-2-yl)-[2-(2-methyl-pyrrolidin-1-yl)-6-piperidin-4-yl-pyrimidin-4-yl]-amine] |
| 100 nM | COc1ccnc(Nc2cc(C3CCN(C(C)=O)C3)nc(N3CCCC3C)n2)c1 (centres unmarked) [Example 129, 1-{3-[6-(4-Methoxy-pyridin-2-ylamino)-2-(2-methyl-pyrrolidin-1-yl)-pyrimidin-4-yl]-pyrrolidin-1-yl}-ethanone] |
| 10.4 nM | C[C@@H]1CC[C@@H](C)N1c1nc(Nc2cc(C(F)(F)F)ccn2)cc(C2CCNCC2)n1 [Example 143, [2-((2R,5R)-2,5-Dimethyl-pyrrolidin-1-yl)-6-piperidin-4-yl-pyrimidin-4-yl]-(4-trifluoromethyl-pyridin-2-yl)-amine] |
| 141 nM | CC(C)c1nc(Nc2cc(C(F)(F)F)ccn2)cc(C2CCCN(C)C2)n1 (centres unmarked) [Example 145, [2-Isopropyl-6-(1-methyl-piperidin-3-yl)-pyrimidin-4-yl]-(4-trifluoro-methyl-pyridin-2-yl)-amine] |
| 26.9 nM | CC(=O)N1CCC(C#N)(c2cc(Nc3cc(C(F)(F)F)ccn3)nc(N3CCC(F)(F)C3)n2)CC1 [Example 156, 1-Acetyl-4-[2-(3,3-difluoro-pyrrolidin-1-yl)-6-(4-trifluoromethyl-pyridin-2-ylamino)-pyrimidin-4-yl]-piperidine-4-carbonitrile] |
| 4.42 nM | CN1CCC(c2cc(Nc3cc(C(F)(F)F)ccn3)nc(N3CCC(F)(F)C3)n2)CC1 [Example 160, [2-(3,3-Difluoro-pyrrolidin-1-yl)-6-(1-methyl-piperidin-4-yl)-pyrimidin-4-yl]-(4-trifluoromethyl-pyridin-2-yl)-amine] |
| 0.4 nM | C[C@@H]1CCCN1c1nc(Nc2cc(C(F)(F)F)ccn2)cc(C2CCN(C)CC2)n1 [Example 169, [6-(1-Methyl-piperidin-4-yl)-2-((R)-2-methyl-pyrrolidin-1-yl)-pyrimidin-4-yl]-(4-trifluoromethyl-pyridin-2-yl)-amine] |

| Ki | SMILES |
| --- | --- |
| 37 nM | N#CCC(=O)N1CCCC(c2cc(Nc3cc(C(F)(F)F)ccn3)nc(C3CC3)n2)C1 (centres unmarked) [Example 173, 3-{3-[2-Cyclopropyl-6-(4-trifluoromethyl-pyridin-2-ylamino)-pyrimidin-4-yl]-piperidin-1-yl}-3-oxo-propionitrile] |
| 2.2 nM | CC(=O)N1CCC(c2cc(Nc3cc(C(F)(F)F)ccn3)nc(N3CCC[C@H]3C)n2)CC1 [Example 175, 1-{4-[2-((R)-2-Methyl-pyrrolidin-1-yl)-6-(4-trifluoromethyl-pyridin-2-ylamino)-pyrimidin-4-yl]-piperidin-1-yl}-ethanone] |
| 8.03 nM | CC1CCCN1c1nc(Nc2cc(C(F)(F)F)ccn2)cc(C2CCN(C(=O)CC#N)CC2)n1 (centres unmarked) [Example 177, 3-{4-[2-(2-Methyl-pyrrolidin-1-yl)-6-(4-trifluoromethyl-pyridin-2-ylamino)-pyrimidin-4-3yl]-piperidin-1-yl}-3-oxo-propionitrile] |
| 26.8 nM | O=C(C(F)F)N1CCCC(c2cc(Nc3cc(C(F)(F)F)ccn3)nc(N3CCC(F)(F)C3)n2)C1 (centres unmarked) [Example 178, 1-{3-[2-(3,3-Difluoro-pyrrolidin-1-yl)-6-(4-trifluoromethyl-pyridin-2-ylamino)-pyrimidin-4-yl]-piperidin-1-yl}-2,2-difluoro-ethanone] |
| 46.2 nM | CC1CC1C(=O)N1CCC(c2cc(Nc3cc(C(F)(F)F)ccn3)nc(N3CCC(F)(F)C3)n2)C1 (centres unmarked) [Example 180] |
| 41.5 nM | O=C(C1CC1)N1CCC(c2cc(Nc3cc(C(F)(F)F)ccn3)nc(N3CCC(F)(F)C3)n2)C1 (centres unmarked) [Example 184, Cyclopropyl-{3-[2-(3,3-difluoro-pyrrolidin-1-yl)-6-(4-trifluoromethyl-pyridin-2-ylamino)-pyrimidin-4-yl}-pyrrolidin-1-yl}-methanone] |
| 143 nM | CC(C)Cc1nc(Nc2cc(C(F)(F)F)ccn2)cc(C2CCCN(C(=O)C(F)F)C2)n1 (centres unmarked) [Example 195, 2,2-Difluoro-1-{3-[2-isobutyl-6-(4-trifluoromethyl-pyridin-2-ylamino)-pyrimidin-4-yl]-piperidin-1-yl}-ethanone] |
| 8.34 nM | CC(C)(C)c1ccnc(Nc2cc(C3CCNCC3)nc(N3CCC(F)(F)C3)n2)c1 [Example 200, (4-tert-Butyl-pyridin-2-yl)-[2-(3,3-difluoro-pyrrolidin-1-yl)-6-piperidin-4-yl-pyrimidin-4-yl]-amine] |
| 3.2 nM | FC1(F)CCN(c2nc(Nc3cc(-c4cccs4)ccn3)cc(C3CCNCC3)n2)C1 [Example 201, [2-(3,3-Difluoro-pyrrolidin-1-yl)-6-piperidin-4-yl-pyrimidin-4-yl]-(4-thiophen-2-yl-pyridin-2-yl)-amine] |
| 0.95 nM | C[C@@H]1CCCN1c1nc(Nc2cc(C3CC3)ccn2)cc(C2CCNCC2)n1 [Example 202, (4-Cyclopropyl-pyridin-2-yl)-[2-((R)-2-methyl-pyrrolidin-1-yl)-6-piperidin-4-yl-pyrimidin-4-yl]-amine] |
| 7.69 nM | CC1CCCN1c1nc(Nc2cc(C(F)(F)F)ccn2)cc(C2CCN(C(=O)Cn3ccnc3)C2)n1 (centres unmarked) [Example 204, 2-Imidazol-1-yl-1-{3-[2-(2-methyl-pyrrolidin-1-yl)-6-(4-trifluoromethyl-pyridin-2-ylamino)-pyrimidin-4-yl]-pyrrolidin-1-yl}-ethanone] |
| 43.3 nM | CC(=O)N1CCC(c2cc(Nc3cc(C(F)(F)F)ccn3)nc(N3CCC(C(F)(F)F)C3)n2)CC1 (centres unmarked) [Example 206, 1-{4-[6-(4-Trifluoromethyl-pyridin-2-ylamino)-2-(3-trifluoromethyl-pyrrolidin-1-yl)-pyrimidin-4-yl]-piperidin-1-yl}-ethanone] |
| 322 nM | N#CC1(c2cc(Nc3cc(C(F)(F)F)ccn3)nc(Nc3cc(C(F)(F)F)ccn3)n2)CCOCC1 [Example 208, 4-[2,6-Bis-(4-trifluoro-methyl-pyridin-2-ylamino)-pyrimidin-4-yl]-tetrahydro-pyran-4-carbonitrile] |
| 76.8 nM | C[C@@H]1CCCN1c1nc(Nc2cc(C(F)(F)F)ccn2)cc(C2(C#N)CCOCC2)n1 [Example 209, 4-[2-((R)-2-Methyl-pyrrolidin-1-yl)-6-(4-trifluoromethyl-pyridin-2-ylamino)-pyrimidin-4-yl]-tetrahydro-pyran-4-carbonitrile] |
| 288 nM | FC(F)(F)c1ccnc(Nc2cc(C3CCOCC3)nc(N3CC4(COC4)C3)n2)c1 [Example 218, [2-(2-Oxa-6-aza-spiro-[3.3]hept-6-yl)-6-(tetrahydro-pyran-4-yl)-pyrimidin-4-yl]-(4-trifluoromethyl-pyridin-2-yl)-amine] |
| 26.7 nM | CC(=O)N1CCC(c2cc(Nc3cc(C(F)(F)F)ccn3)nc(N3CC(F)C(F)C3)n2)CC1 (centres unmarked) [Example 250, 1-{4-[2-(3,4-Difluoro-pyrrolidin-1-yl)-6-(4-trifluoromethyl-pyridin-2-ylamino)-pyrimidin-4-yl]-piperidin-1-yl}-ethanone] |
